Experimental data: patent US12390441B2, “Immunomodulating o-het/aryl azalides” (Zoetis Services LLC, priority 2020, dated 2025)
Marks after values point to notes of the source that are not given here.

Legend:
[1] = test system: BRD pathogens, M. haemolytica and P. multocida; experiment: In-vitro MIC model, BRD pathogen screening panel; type: cell-based, Mannheimia haemolytica; Pasteurella multocida; settings: for MIC for at least one BRD strain (asterisk on Ex#): Table F, Formula (1-A1a) compounds
TNF-α = experiment: Whole blood assay, LPS stimulation, MSD cytokine detection; type: cell-based; settings: fresh whole bovine blood
IL-1β = experiment: as above; type: cell-based, bovine; settings: fresh whole bovine blood, LPS stimulation; drug concentration giving overstimulation (OS) of IL-1β
IL-6 = experiment: as above; type: cell-based; settings: fresh whole bovine blood

Structure (SMILES)	MIC flag at the example number (Table E) ([1]; at least one BRD strain)	also measured
CC[C@H]1OC(=O)[C@H](C)[C@@H](O)[C@H](C)[C@@H](O[C@@H]2O[C@H](C)C[C@H](N(C)C(=O)N(C)c3ccccc3)[C@H]2Oc2ccc(OC)cc2)[C@](C)(O)C[C@@H](C)CN(C)[C@H](C)[C@@H](O)[C@]1(C)O [Example C-13]		MIC flag at the example number (Table C) ([1]; at least one BRD strain): C-13* (MIC ≤ 64 μg/mL for at least one BRD strain); IC50 (TNF-α): 44 µM; IL-1ß OS of LPS (IL-1β): 40 µM
CCCNC[C@]1(O)[C@H](C)O[C@@H](O[C@H]2[C@H](C)[C@@H](O[C@@H]3O[C@H](C)C[C@H](NC)[C@H]3Oc3cccc(F)c3)[C@](C)(O)C[C@@H](C)CN[C@H](C)[C@@H](O)[C@](C)(O)[C@@H](CC)OC(=O)[C@@H]2C)C[C@@]1(C)OC [Example E-7]	E-7* (MIC ≤ 64 μg/mL for at least one BRD strain)	IC50 (TNF-α): 15 µM; IL-1ß OS of LPS (IL-1β): 40 µM; IC50 (IL-6): 40 µM
CCCNC[C@]1(O)[C@H](C)O[C@@H](O[C@H]2[C@H](C)[C@@H](O[C@@H]3O[C@H](C)C[C@H](N(C)C)[C@H]3Oc3ccc(OC)c(OCC)c3)[C@](C)(O)C[C@@H](C)CN[C@H](C)[C@@H](O)[C@](C)(O)[C@@H](CC)OC(=O)[C@@H]2C)C[C@@]1(C)OC [Example E-88]	E-88* (MIC ≤ 64 μg/mL for at least one BRD strain)	
CCCNC[C@]1(O)[C@H](C)O[C@@H](O[C@H]2[C@H](C)[C@@H](O[C@@H]3O[C@H](C)C[C@H](N(C)C)[C@H]3Oc3ccc(C(=O)N4CCCC4)cc3)[C@](C)(O)C[C@@H](C)CN[C@H](C)[C@@H](O)[C@](C)(O)[C@@H](CC)OC(=O)[C@@H]2C)C[C@@]1(C)OC [Example E-95]	E-95* (MIC ≤ 64 μg/mL for at least one BRD strain)	
CCCNC[C@]1(O)[C@H](C)O[C@@H](O[C@H]2[C@H](C)[C@@H](O[C@@H]3O[C@H](C)C[C@H](N(C)C)[C@H]3Oc3ccccc3OCC)[C@](C)(O)C[C@@H](C)CN[C@H](C)[C@@H](O)[C@](C)(O)[C@@H](CC)OC(=O)[C@@H]2C)C[C@@]1(C)OC [Example E-96]	E-96* (MIC ≤ 64 μg/mL for at least one BRD strain)	
CCCNC[C@]1(O)[C@H](C)O[C@@H](O[C@H]2[C@H](C)[C@@H](O[C@@H]3O[C@H](C)C[C@H](N(C)C)[C@H]3Oc3ccc(OC)cc3OC)[C@](C)(O)C[C@@H](C)CN[C@H](C)[C@@H](O)[C@](C)(O)[C@@H](CC)OC(=O)[C@@H]2C)C[C@@]1(C)OC [Example E-97]	E-97* (MIC ≤ 64 μg/mL for at least one BRD strain)	
CCCNC[C@]1(O)[C@H](C)O[C@@H](O[C@H]2[C@H](C)[C@@H](O[C@@H]3O[C@H](C)C[C@H](NC)[C@H]3Oc3ccc(OC(F)(F)F)cc3)[C@](C)(O)C[C@@H](C)CN[C@H](C)[C@@H](O)[C@](C)(O)[C@@H](CC)OC(=O)[C@@H]2C)C[C@@]1(C)OC [Example E-101]	E-101* (MIC ≤ 64 μg/mL for at least one BRD strain)	
CCCNC[C@]1(O)[C@H](C)O[C@@H](O[C@H]2[C@H](C)[C@@H](O[C@@H]3O[C@H](C)C[C@H](NC)[C@H]3Oc3ccc(C)cc3)[C@](C)(O)C[C@@H](C)CN[C@H](C)[C@@H](O)[C@](C)(O)[C@@H](CC)OC(=O)[C@@H]2C)C[C@@]1(C)OC [Example E-103]	E-103* (MIC ≤ 64 μg/mL for at least one BRD strain)	
CCCNC[C@]1(O)[C@H](C)O[C@@H](O[C@H]2[C@H](C)[C@@H](O[C@@H]3O[C@H](C)C[C@H](NC)[C@H]3Oc3ccc(C(F)(F)F)cc3)[C@](C)(O)C[C@@H](C)CN[C@H](C)[C@@H](O)[C@](C)(O)[C@@H](CC)OC(=O)[C@@H]2C)C[C@@]1(C)OC [Example E-104]	E-104* (MIC ≤ 64 μg/mL for at least one BRD strain)	
CCCNC[C@]1(O)[C@H](C)O[C@@H](O[C@H]2[C@H](C)[C@@H](O[C@@H]3O[C@H](C)C[C@H](N(C)C)[C@H]3Oc3ccccc3C#N)[C@](C)(O)C[C@@H](C)CN[C@H](C)[C@@H](O)[C@](C)(O)[C@@H](CC)OC(=O)[C@@H]2C)C[C@@]1(C)OC [Example E-105]	E-105* (MIC ≤ 64 μg/mL for at least one BRD strain)	
CCCNC[C@]1(O)[C@H](C)O[C@@H](O[C@H]2[C@H](C)[C@@H](O[C@@H]3O[C@H](C)C[C@H](NC)[C@H]3Oc3ccc(Cl)cc3)[C@](C)(O)C[C@@H](C)CN[C@H](C)[C@@H](O)[C@](C)(O)[C@@H](CC)OC(=O)[C@@H]2C)C[C@@]1(C)OC [Example E-106]	E-106* (MIC ≤ 64 μg/mL for at least one BRD strain)	
CC[C@H]1OC(=O)[C@H](C)[C@@H](O[C@H]2C[C@@](C)(OC)[C@](O)(CNCCN(C)C)[C@H](C)O2)[C@H](C)[C@@H](O[C@@H]2O[C@H](C)C[C@H](N(C)C)[C@H]2Oc2ccc(OC)cc2)[C@](C)(O)C[C@@H](C)CN[C@H](C)[C@@H](O)[C@]1(C)O [Example E-107]	E-107* (MIC ≤ 64 μg/mL for at least one BRD strain)	
CCCN(C[C@]1(O)[C@H](C)O[C@@H](O[C@H]2[C@H](C)[C@@H](O[C@@H]3O[C@H](C)C[C@H](NC)[C@H]3Oc3ncccn3)[C@](C)(O)C[C@@H](C)CN[C@H](C)[C@@H](O)[C@](C)(O)[C@@H](CC)OC(=O)[C@@H]2C)C[C@@]1(C)OC)c1ncccn1 [Example E-118]	E-118* (MIC ≤ 64 μg/mL for at least one BRD strain)	
CCCN(C[C@]1(O)[C@H](C)O[C@@H](O[C@H]2[C@H](C)[C@@H](O[C@@H]3O[C@H](C)C[C@H](NC)[C@H]3Oc3ncc(Cl)cn3)[C@](C)(O)C[C@@H](C)CN[C@H](C)[C@@H](O)[C@](C)(O)[C@@H](CC)OC(=O)[C@@H]2C)C[C@@]1(C)OC)c1ncc(Cl)cn1 [Example E-119]	E-119* (MIC ≤ 64 μg/mL for at least one BRD strain)	
CCCN(C[C@]1(O)[C@H](C)O[C@@H](O[C@H]2[C@H](C)[C@@H](O[C@@H]3O[C@H](C)C[C@H](NC)[C@H]3Oc3ncc(C#N)cn3)[C@](C)(O)C[C@@H](C)CN[C@H](C)[C@@H](O)[C@](C)(O)[C@@H](CC)OC(=O)[C@@H]2C)C[C@@]1(C)OC)c1ncc(C#N)cn1 [Example E-122]	E-122* (MIC ≤ 64 μg/mL for at least one BRD strain)	
CCCNC[C@]1(O)[C@H](C)O[C@@H](O[C@H]2[C@H](C)[C@@H](O[C@@H]3O[C@H](C)C[C@H](N(C)C)[C@H]3Oc3cccc(C)c3)[C@](C)(O)C[C@@H](C)CN[C@H](C)[C@@H](O)[C@](C)(O)[C@@H](CC)OC(=O)[C@@H]2C)C[C@@]1(C)OC [Example E-123]	E-123* (MIC ≤ 64 μg/mL for at least one BRD strain)	
CCCNC[C@]1(O)[C@H](C)O[C@@H](O[C@H]2[C@H](C)[C@@H](O[C@@H]3O[C@H](C)C[C@H](N(C)C)[C@H]3Oc3ccc(OC)nc3)[C@](C)(O)C[C@@H](C)CN[C@H](C)[C@@H](O)[C@](C)(O)[C@@H](CC)OC(=O)[C@@H]2C)C[C@@]1(C)OC [Example E-133]	E-133* (MIC ≤ 64 μg/mL for at least one BRD strain)	
CC[C@H]1OC(=O)[C@H](C)[C@@H](O[C@H]2C[C@@](C)(OC)[C@](O)(CNc3ccccc3)[C@H](C)O2)[C@H](C)[C@@H](O[C@@H]2O[C@H](C)C[C@H](NC)[C@H]2Oc2ccccc2)[C@](C)(O)C[C@@H](C)CN[C@H](C)[C@@H](O)[C@]1(C)O [Example E-137]	E-137* (MIC ≤ 64 μg/mL for at least one BRD strain)	
CC[C@H]1OC(=O)[C@H](C)[C@@H](O[C@H]2C[C@@](C)(OC)[C@](O)(CNC3CC3)[C@H](C)O2)[C@H](C)[C@@H](O[C@@H]2O[C@H](C)C[C@H](N(C)C)[C@H]2Oc2ccccc2)[C@](C)(O)C[C@@H](C)CN[C@H](C)[C@@H](O)[C@]1(C)O [Example E-140]	E-140* (MIC ≤ 64 μg/mL for at least one BRD strain)	
CCCNC[C@]1(O)[C@H](C)O[C@@H](O[C@H]2[C@H](C)[C@@H](O[C@@H]3O[C@H](C)C[C@H](N(C)C(=O)N(C)c4ccccc4)[C@H]3Oc3ccccc3Cl)[C@](C)(O)C[C@@H](C)CN[C@H](C)[C@@H](O)[C@](C)(O)[C@@H](CC)OC(=O)[C@@H]2C)C[C@@]1(C)OC [Example F-10]		MIC for at least one BRD strain (asterisk on Ex#) [1]: F-10* (MIC ≤ 64 μg/mL for at least one BRD strain)
CCCNC[C@]1(O)[C@H](C)O[C@@H](O[C@H]2[C@H](C)[C@@H](O[C@@H]3O[C@H](C)C[C@H](N(C)C(=O)N(C)CCC)[C@H]3Oc3ccccc3)[C@](C)(O)C[C@@H](C)CN[C@H](C)[C@@H](O)[C@](C)(O)[C@@H](CC)OC(=O)[C@@H]2C)C[C@@]1(C)OC [Example F-11]		MIC for at least one BRD strain (asterisk on Ex#) [1]: F-11* (MIC ≤ 64 μg/mL for at least one BRD strain)
CCCNC[C@]1(O)[C@H](C)O[C@@H](O[C@H]2[C@H](C)[C@@H](O[C@@H]3O[C@H](C)C[C@H](N(C)C(=O)N(C)c4ccccc4)[C@H]3Oc3cccc(OCC)c3)[C@](C)(O)C[C@@H](C)CN[C@H](C)[C@@H](O)[C@](C)(O)[C@@H](CC)OC(=O)[C@@H]2C)C[C@@]1(C)OC [Example F-20]		MIC for at least one BRD strain (asterisk on Ex#) [1]: F-20* (MIC ≤ 64 μg/mL for at least one BRD strain)
CCCNC[C@]1(O)[C@H](C)O[C@@H](O[C@H]2[C@H](C)[C@@H](O[C@@H]3O[C@H](C)C[C@H](N(C)C(=O)N(C)c4ccccc4)[C@H]3Oc3ccc(C#N)cc3)[C@](C)(O)C[C@@H](C)CN[C@H](C)[C@@H](O)[C@](C)(O)[C@@H](CC)OC(=O)[C@@H]2C)C[C@@]1(C)OC [Example F-21]		MIC for at least one BRD strain (asterisk on Ex#) [1]: F-21* (MIC ≤ 64 μg/mL for at least one BRD strain)
CCCNC[C@]1(O)[C@H](C)O[C@@H](O[C@H]2[C@H](C)[C@@H](O[C@@H]3O[C@H](C)C[C@H](N(C)C(=O)N4CCOc5ccccc54)[C@H]3Oc3ccccc3)[C@](C)(O)C[C@@H](C)CN[C@H](C)[C@@H](O)[C@](C)(O)[C@@H](CC)OC(=O)[C@@H]2C)C[C@@]1(C)OC [Example G-2]		MIC flag at the example number (Table G) ([1]; at least one BRD strain): G-2* (MIC ≤ 64 μg/mL for at least one BRD strain)
